This is an account of results in US8822444B2, “Hepatitis C virus inhibitors” (Bristol-Myers Squibb Company, priority 2009, dated 2014).

The test system of this test is HCV 1b genotype. Kind of test: HCV Replicon assay. In kind it is cell-based. The conditions noted are these: HCV 1b genotype replicon. The procedure:
An HCV Replicon assay was utilized in the present disclosure, and was prepared, conducted and validated as described in commonly owned PCT/US2006/022197 and in O'Boyle et. al. Antimicrob Agents Chemother. 2005 April; 49(4):1346-53. Assay methods incorporating luciferase reporters have also been used as described (Apath.com).
HCV-neo replicon cells and replicon cells containing mutations in the NS5A region were used to test the currently described family of compounds. The compounds were determined to have more than 10-fold less inhibitory activity on cells containing mutations than wild-type cells. Thus, the compounds of the present disclosure can be effective in inhibiting the function of the HCV NS5A protein and are understood to be as effective in combinations as previously described in application PCT/US2006/022197 and commonly owned WO/04014852. Further, the compounds of the present disclosure can be effective against the HCV 1b genotype. It should also be understood that the compounds of the present disclosure can inhibit multiple genotypes of HCV. […] In one embodiment, compounds of the present disclosure are inhibitory versus 1a, 1b, 2a, 2b, 3a, 4a, and 5a genotypes.

[1] abbreviates: Hepatitis C virus, read-out: 1b EC50 (in nM or range).
The mark [2] stands for this setting: Hepatitis C virus, read-out: 1b EC50 Range.

Molecules are shown by their SMILES. Where two headings read alike, the source gives them in different places.

For the compound `COC(=O)N[C@H](C(=O)N1CCC[C@H]1c1nc(C2=CCC(c3ccc(-c4c[nH]c([C@@H]5CCCN5C(=O)[C@@H](NC(=O)OC)C(C)C)n4)cc3)CC2)c[nH]1)C(C)C` (mixture of isomers) [QC-9, methyl ((1S)-1-(((2S)-2-(4-(4-(4-(2-((2S)-1-((2S)-2-((methoxycarbonyl)amino)-3-methylbutanoyl)-2-pyrrolidinyl)-1H-imidazol-4-yl)phenyl)-1-cyclohexen-1-yl)-1H-imidazol-2-yl)-1-pyrrolidinyl)carbonyl)-2-methylpropyl)carbamate], the EC50 was 0.011 nM under setting [1] and 2 to 4.57 nM under setting [2].

For the compound `COC(=O)N[C@H](C(=O)N1CCC[C@H]1c1nc(-c2ccc(C3CCC(c4c[nH]c([C@@H]5CCCN5C(=O)[C@@H](NC(=O)OC)C(C)C)n4)CC3)cc2)c[nH]1)C(C)C` (single isomer, unassigned) [QC-16], under setting [2], the EC50 was in the range of 2 to 4.57 nM.

`COC(=O)N[C@H](C(=O)N1CCC[C@H]1c1nc(-c2ccc(C34CCC(c5c[nH]c([C@@H]6CCCN6C(=O)[C@@H](NC(=O)OC)C(C)C)n5)(CC3)CC4)cc2)c[nH]1)C(C)C` [Example M-1, methyl ((1S)-1-(((2S)-2-(4-(4-(4-(2-((2S)-1-((2S)-2-((methoxycarbonyl)amino)-3-methylbutanoyl)-2-pyrrolidinyl)-1H-imidazol-4-yl)phenyl)bicyclo[2.2.2]oct-1-yl)-1H-imidazol-2-yl)-1-pyrrolidinyl)carbonyl)-2-methylpropyl)carbamate]: the EC50 under setting [1] came out at 0.009 nM and the EC50 under setting [2] was in the range of 2 to 4.57 nM.

Regarding `COC(=O)N[C@@H](C)C(=O)N1CCC[C@H]1c1nc(-c2ccc(C34CCC(c5c[nH]c([C@@H]6CCCN6C(=O)[C@H](C)NC(=O)OC)n5)(CC3)CC4)cc2)c[nH]1` [Example M-2, methyl ((1S)-2-((2S)-2-(4-(4-(4-(2-((2S)-1-(N-(methoxycarbonyl)-L-alanyl)-2-pyrrolidinyl)-1H-imidazol-4-yl)bicyclo[2.2.2]oct-1-yl)phenyl)-1H-imidazol-2-yl)-1-pyrrolidinyl)-1-methyl-2-oxoethyl)carbamate], the EC50 under setting [2] is 4.57 to 99 nM.

As to `COC(=O)N[C@@H](C(=O)N1CCC[C@H]1c1nc(-c2ccc(C34CCC(c5c[nH]c([C@@H]6CCCN6C(=O)[C@H](NC(=O)OC)c6ccccc6)n5)(CC3)CC4)cc2)c[nH]1)c1ccccc1` [Example M-3, methyl ((1R)-2-((2S)-2-(4-(4-(4-(2-((2S)-1-((2R)-2-((methoxycarbonyl)amino)-2-phenylacetyl)-2-pyrrolidinyl)-1H-imidazol-4-yl)bicyclo[2.2.2]oct-1-yl)phenyl)-1H-imidazol-2-yl)-1-pyrrolidinyl)-2-oxo-1-phenylethyl)carbamate], the EC50 under setting [2] is 2 to 4.57 nM.

Take `COC(=O)N[C@H](C(=O)N1CCC[C@H]1c1nc(-c2ccc(C34CCC(c5coc([C@@H]6CCCN6C(=O)[C@@H](NC(=O)OC)C(C)C)n5)(CC3)CC4)cc2)c[nH]1)C(C)C` [Example M-4, methyl ((1S)-1-(((2S)-2-(4-(4-(4-(2-((2S)-1-((2S)-2-((methoxycarbonyl)amino)-3-methylbutanoyl)-2-pyrrolidinyl)-1H-imidazol-4-yl)phenyl)bicyclo[2.2.2]oct-1-yl)-1,3-oxazol-2-yl)-1-pyrrolidinyl)carbonyl)-2-methylpropyl)carbamate]: the EC50 under setting [2] lay within 1000 to 10000 nM.

For `COC(=O)N[C@H](C(=O)N1[C@@H]2C[C@@H]2C[C@H]1c1ncc(-c2ccc(C34CCC(c5cnc([C@@H]6C[C@H]7C[C@H]7N6C(=O)[C@@H](NC(=O)OC)C(C)C)[nH]5)(CC3)CC4)cc2)[nH]1)C(C)C` [Example M-5, methyl ((1S)-1-(((1R,3S,5R)-3-(5-(4-(4-(2-((1R,3S,5R)-2-((2S)-2-((methoxycarbonyl)amino)-3-methylbutanoyl)-2-azabicyclo[3.1.0]hex-3-yl)-1H-imidazol-5-yl)bicyclo[2.2.2]oct-1-yl)phenyl)-1H-imidazol-2-yl)-2-azabicyclo[3.1.0]hex-2-yl)carbonyl)-2-methylpropyl)carbamate], under setting [2], the EC50 lay within 2 to 4.57 nM.

As for `CC[C@H](NC(=O)OC)C(=O)N1[C@@H]2C[C@@H]2C[C@H]1c1ncc(-c2ccc(C34CCC(c5cnc([C@@H]6C[C@H]7C[C@H]7N6C(=O)[C@H](CC)NC(=O)OC)[nH]5)(CC3)CC4)cc2)[nH]1` [Example M-6, methyl ((1S)-1-(((1R,3S,5R)-3-(5-(4-(4-(2-((1R,3S,5R)-2-((2S)-2-((methoxycarbonyl)amino)butanoyl)-2-azabicyclo[3.1.0]hex-3-yl)-1H-imidazol-5-yl)bicyclo[2.2.2]oct-1-yl)phenyl)-1H-imidazol-2-yl)-2-azabicyclo[3.1.0]hex-2-yl)carbonyl)propyl)carbamate], the EC50 under setting [2] lay in the range of 2 to 4.57 nM.

`COC(=O)N[C@@H](C(=O)N1[C@@H]2C[C@@H]2C[C@H]1c1ncc(-c2ccc(C34CCC(c5cnc([C@@H]6C[C@H]7C[C@H]7N6C(=O)[C@H](NC(=O)OC)c6ccccc6)[nH]5)(CC3)CC4)cc2)[nH]1)c1ccccc1` [Example M-7, methyl ((1R)-2-((1R,3S,5R)-3-(5-(4-(4-(2-((1R,3S,5R)-2-((2R)-2-((methoxycarbonyl)amino)-2-phenylacetyl)-2-azabicyclo[3.1.0]hex-3-yl)-1H-imidazol-5-yl)bicyclo[2.2.2]oct-1-yl)phenyl)-1H-imidazol-2-yl)-2-azabicyclo[3.1.0]hex-2-yl)-2-oxo-1-phenylethyl)carbamate]: the EC50 under setting [2] is 2 to 4.57 nM.

With `COC(=O)N[C@H](C(=O)N1[C@@H]2C[C@@H]2C[C@H]1c1nc(Cl)c(-c2ccc(C34CCC(c5[nH]c([C@@H]6C[C@H]7C[C@H]7N6C(=O)[C@@H](NC(=O)OC)C(C)C)nc5Cl)(CC3)CC4)cc2)[nH]1)C(C)C` [Example M-8, methyl ((1S)-1-(((1R,3S,5R)-3-(4-chloro-5-(4-(4-(4-chloro-2-((1R,3S,5R)-2-((2S)-2-((methoxycarbonyl)amino)-3-methylbutanoyl)-2-azabicyclo[3.1.0]hex-3-yl)-1H-imidazol-5-yl)bicyclo[2.2.2]oct-1-yl)phenyl)-1H-imidazol-2-yl)-2-azabicyclo[3.1.0]hex-2-yl)carbonyl)-2-methylpropyl)carbamate], the EC50 under setting [2] was in the range of 2 to 4.57 nM.

Take `COC(=O)N[C@@H](C)C(=O)N1CCC[C@H]1c1nc(C2=CCC(C3CC=C(c4c[nH]c([C@@H]5CCCN5C(=O)[C@H](C)NC(=O)OC)n4)CC3)CC2)c[nH]1` (stereo partly drawn) [QC-2, methyl ((1S)-2-((2S)-2-(4-(4′-(2-((2S)-1-(N-(methoxycarbonyl)-L-alanyl)-2-pyrrolidinyl)-1H-imidazol-4-yl)-1,1′-bi(3-cyclohexen-1-yl)-4-yl)-1H-imidazol-2-yl)-1-pyrrolidinyl)-1-methyl-2-oxoethyl)carbamate]: the EC50 (read-out: 1b EC50 Range) fell in the range of 4.57 to 99 nM.

On to `CCN(CC)[C@@H](C(=O)N1CCC[C@H]1c1nc(C2=CCC(C3CC=C(c4c[nH]c([C@@H]5CCCN5C(=O)[C@@H](c5ccccc5)N(CC)CC)n4)CC3)CC2)c[nH]1)c1ccccc1` (stereo partly drawn) [QC-3, (1R,1′R)-2,2′-(1,1′-bi(3-cyclohexen-1-yl)-4,4′-diylbis(1H-imidazole-4,2-diyl(2S)-2,1-pyrrolidinediyl))bis(N,N-diethyl-2-oxo-1-phenylethanamine)], for which the EC50 (read-out: 1b EC50 Range) lay within 2 to 4.57 nM.

As to `COC[C@H](NC(=O)OC)C(=O)N1CCC[C@H]1c1nc(C2=CCC(C3CC=C(c4c[nH]c([C@@H]5CCCN5C(=O)[C@H](COC)NC(=O)OC)n4)CC3)CC2)c[nH]1` (stereo partly drawn) [QC-4, methyl ((1S)-2-((2S)-2-(4-(4′-(2-((2S)-1-(N-(methoxycarbonyl)-O-methyl-L-seryl)-2-pyrrolidinyl)-1H-imidazol-4-yl)-1,1′-bi(3-cyclohexen-1-yl)-4-yl)-1H-imidazol-2-yl)-1-pyrrolidinyl)-1-(methoxymethyl)-2-oxoethyl)carbamate], for the setting “read-out: 1b EC50 Range”, the EC50 lay within 4.57 to 99 nM.

As to `COC(=O)N[C@H](C(=O)N1CCC[C@H]1c1nc(C2=CCC(C3CC=C(c4c[nH]c([C@@H]5CCCN5C(=O)[C@@H](NC(=O)OC)[C@@H](C)OC)n4)CC3)CC2)c[nH]1)[C@@H](C)OC` (stereo partly drawn) [QC-5, methyl ((1S,2R)-2-methoxy-1-(((2S)-2-(4-(4′-(2-((2S)-1-(N-(methoxycarbonyl)-O-methyl-L-threonyl)-2-pyrrolidinyl)-1H-imidazol-4-yl)-1,1′-bi(3-cyclohexen-1-yl)-4-yl)-1H-imidazol-2-yl)-1-pyrrolidinyl)carbonyl)propyl)carbamate], the EC50 (read-out: 1b EC50 Range) lay in the range of 2 to 4.57 nM.

`COC(=O)N[C@@H](C)C(=O)N1CCC[C@H]1c1nc(C2CCC(C3CCC(c4c[nH]c([C@@H]5CCCN5C(=O)[C@H](C)NC(=O)OC)n4)CC3)CC2)c[nH]1` (stereo partly drawn) [QC-6, methyl ((1S)-2-((2S)-2-(4-(4′-(2-((2S)-1-(N-(methoxycarbonyl)-L-alanyl)-2-pyrrolidinyl)-1H-imidazol-4-yl)-1,1′-bi(cyclohexyl)-4-yl)-1H-imidazol-2-yl)-1-pyrrolidinyl)-1-methyl-2-oxoethyl)carbamate]: the EC50 under setting [2] is 100 to 999 nM.

For the compound `COC[C@H](NC(=O)OC)C(=O)N1CCC[C@H]1c1nc(C2CCC(C3CCC(c4c[nH]c([C@@H]5CCCN5C(=O)[C@H](COC)NC(=O)OC)n4)CC3)CC2)c[nH]1` (stereo partly drawn) [QC-7, methyl ((1S)-2-((2S)-2-(4-(4′-(2-((2S)-1-(N-(methoxycarbonyl)-O-methyl-L-seryl)-2-pyrrolidinyl)-1H-imidazol-4-yl)-1,1′-bi(cyclohexyl)-4-yl)-1H-imidazol-2-yl)-1-pyrrolidinyl)-1-(methoxymethyl)-2-oxoethyl)carbamate], the EC50 under setting [1] was 17.1 nM and the EC50 under setting [2] is 1000 to 10000 nM.
